Reference: PubChem BioAssay (NCI)
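Growth conditions: 96-well plates. Treatment: test compound, 48 hours, 5 concentrations. Analysis: linear interpolation between bracketing concentrations; unreached endpoints set to highest concentration. TGI is the concentration that stops growth completely.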

Assays:
Assay in all cases: NCI tumour cell line growth inhibition, 48 h
A498 renal = system: A498 renal
A549 NSCLC = system: A549 NSCLC
CAKI-1 renal = system: CAKI-1 renal
CCRF-CEM leukemia = system: CCRF-CEM leukemia
COLO 205 colon = system: COLO 205 colon
DLD-1 colon = system: DLD-1 colon
DMS 114 small cell lung = system: DMS 114 small cell lung
DMS 273 small cell lung = system: DMS 273 small cell lung
EKVX NSCLC = system: EKVX NSCLC
HCC-2998 colon = system: HCC-2998 colon
HCT-116 colon = system: HCT-116 colon
HCT-15 colon = system: HCT-15 colon
HL-60(TB) leukemia = system: HL-60(TB) leukemia
HOP-18 NSCLC = system: HOP-18 NSCLC
HOP-62 NSCLC = system: HOP-62 NSCLC
HOP-92 NSCLC = system: HOP-92 NSCLC
HT29 colon = system: HT29 colon
IGROV1 ovarian = system: IGROV1 ovarian
K-562 leukemia = system: K-562 leukemia
KM12 colon = system: KM12 colon
KM20L2 colon = system: KM20L2 colon
LOX IMVI melanoma = system: LOX IMVI melanoma
M19-MEL melanoma = system: M19-MEL melanoma
MALME-3M melanoma = system: MALME-3M melanoma
MCF7 breast = system: MCF7 breast
MOLT-4 leukemia = system: MOLT-4 leukemia
NCI-H226 lung = system: NCI-H226 lung
NCI-H23 lung = system: NCI-H23 lung
NCI-H460 lung = system: NCI-H460 lung
NCI-H522 lung = system: NCI-H522 lung
NCI/ADR-RES ovarian = system: NCI/ADR-RES ovarian
OVCAR-3 ovarian = system: OVCAR-3 ovarian
OVCAR-4 ovarian = system: OVCAR-4 ovarian
OVCAR-5 ovarian = system: OVCAR-5 ovarian
OVCAR-8 ovarian = system: OVCAR-8 ovarian
P388 leukemia = system: P388 leukemia
P388/ADR leukemia = system: P388/ADR leukemia
RPMI-8226 leukemia = system: RPMI-8226 leukemia
RXF 393 renal = system: RXF 393 renal
SF-268 CNS = system: SF-268 CNS
SF-295 CNS = system: SF-295 CNS
SF-539 CNS = system: SF-539 CNS
SK-MEL-2 melanoma = system: SK-MEL-2 melanoma
SK-MEL-28 melanoma = system: SK-MEL-28 melanoma
SK-MEL-5 melanoma = system: SK-MEL-5 melanoma
SK-OV-3 ovarian = system: SK-OV-3 ovarian
SN12C renal = system: SN12C renal
SN12K1 renal = system: SN12K1 renal
SNB-19 CNS = system: SNB-19 CNS
SNB-75 CNS = system: SNB-75 CNS
SNB-78 CNS = system: SNB-78 CNS
SW-620 colon = system: SW-620 colon
U251 CNS = system: U251 CNS
UACC-257 melanoma = system: UACC-257 melanoma
UACC-62 melanoma = system: UACC-62 melanoma
UO-31 renal = system: UO-31 renal
XF 498 CNS = system: XF 498 CNS

Structure (SMILES): O=C1NC(c2cccc3ccccc23)Nc2ccc(O)cc21 (centres undefined)
- TGI (A498 renal): 75.3 µM
- TGI (A549 NSCLC): > 139 µM
- TGI (CAKI-1 renal): > 144 µM
- TGI (CCRF-CEM leukemia): 111 µM
- TGI (COLO 205 colon): 67.4 µM
- TGI (DLD-1 colon): 134 µM
- TGI (DMS 114 small cell lung): 67.1 µM
- TGI (DMS 273 small cell lung): 64.5 µM
- TGI (EKVX NSCLC): 128 µM
- TGI (HCC-2998 colon): 88.5 µM
- TGI (HCT-116 colon): 122 µM
- TGI (HCT-15 colon): 78.3 µM
- TGI (HL-60(TB) leukemia): 35 µM
- TGI (HOP-18 NSCLC): 131 µM
- TGI (HOP-62 NSCLC): 121 µM
- TGI (HOP-92 NSCLC): 98.9 µM
- TGI (HT29 colon): 121 µM
- TGI (IGROV1 ovarian): 95.7 µM
- TGI (K-562 leukemia): > 94.6 µM
- TGI (KM12 colon): 83.9 µM
- TGI (KM20L2 colon): 113 µM
- TGI (LOX IMVI melanoma): > 75.7 µM
- TGI (M19-MEL melanoma): 127 µM
- TGI (MALME-3M melanoma): 69.5 µM
- TGI (MCF7 breast): 102 µM
- TGI (MOLT-4 leukemia): 75.5 µM
- TGI (NCI-H226 lung): 60 µM
- TGI (NCI-H23 lung): > 132 µM
- TGI (NCI-H460 lung): 69.5 µM
- TGI (NCI-H522 lung): 92.3 µM
- TGI (NCI/ADR-RES ovarian): 94.2 µM
- TGI (OVCAR-3 ovarian): 58.5 µM
- TGI (OVCAR-4 ovarian): > 150 µM
- TGI (OVCAR-5 ovarian): 101 µM
- TGI (OVCAR-8 ovarian): 111 µM
- TGI (P388 leukemia): 50.6 µM
- TGI (P388/ADR leukemia): 83.6 µM
- TGI (RPMI-8226 leukemia): 82.5 µM
- TGI (RXF 393 renal): 91.9 µM
- TGI (SF-268 CNS): > 150 µM
- TGI (SF-295 CNS): 104 µM
- TGI (SF-539 CNS): 91.6 µM
- TGI (SK-MEL-2 melanoma): 57.3 µM
- TGI (SK-MEL-28 melanoma): > 150 µM
- TGI (SK-MEL-5 melanoma): 80.8 µM
- TGI (SK-OV-3 ovarian): 115 µM
- TGI (SN12C renal): 133 µM
- TGI (SN12K1 renal): 112 µM
- TGI (SNB-19 CNS): 150 µM
- TGI (SNB-75 CNS): 106 µM
- TGI (SNB-78 CNS): > 150 µM
- TGI (SW-620 colon): > 127 µM
- TGI (U251 CNS): > 141 µM
- TGI (UACC-257 melanoma): > 84.4 µM
- TGI (UACC-62 melanoma): 78.5 µM
- TGI (UO-31 renal): 78.5 µM
- TGI (XF 498 CNS): 59.2 µM

Structure (SMILES): C=C1CC(OC)(C(OC)C(=O)N(C)[C@H]2OCO[C@H]3C2O[C@H](C[C@@H](COC)OC)C(C)(C)C3OC)O[C@H](C)[C@@H]1C (some centres undefined)
- TGI (A498 renal): 28.8 µM
- TGI (A549 NSCLC): > 91.7 µM
- TGI (CAKI-1 renal): 28.5 µM
- TGI (CCRF-CEM leukemia): 37.7 µM
- TGI (COLO 205 colon): 20.9 µM
- TGI (DLD-1 colon): 70.4 µM
- TGI (DMS 114 small cell lung): 34.9 µM
- TGI (DMS 273 small cell lung): 29 µM
- TGI (EKVX NSCLC): 60.7 µM
- TGI (HCC-2998 colon): 31.6 µM
- TGI (HCT-116 colon): 30.6 µM
- TGI (HCT-15 colon): 87.3 µM
- TGI (HL-60(TB) leukemia): 39.6 µM
- TGI (HOP-18 NSCLC): 71.2 µM
- TGI (HOP-62 NSCLC): > 91.7 µM
- TGI (HT29 colon): 29 µM
- TGI (IGROV1 ovarian): 32.5 µM
- TGI (K-562 leukemia): 40.9 µM
- TGI (KM12 colon): 25.9 µM
- TGI (KM20L2 colon): 36.8 µM
- TGI (LOX IMVI melanoma): 26.5 µM
- TGI (MCF7 breast): 28.8 µM
- TGI (MOLT-4 leukemia): 36 µM
- TGI (NCI-H226 lung): 23.9 µM
- TGI (NCI-H23 lung): 34.7 µM
- TGI (NCI-H460 lung): 64.5 µM
- TGI (NCI-H522 lung): 29.9 µM
- TGI (NCI/ADR-RES ovarian): 41.2 µM
- TGI (OVCAR-3 ovarian): 37.8 µM
- TGI (OVCAR-4 ovarian): 22.2 µM
- TGI (OVCAR-5 ovarian): 69.2 µM
- TGI (OVCAR-8 ovarian): > 91.7 µM
- TGI (P388 leukemia): 18.2 µM
- TGI (P388/ADR leukemia): 38.8 µM
- TGI (RPMI-8226 leukemia): 53.2 µM
- TGI (RXF 393 renal): 24.8 µM
- TGI (SF-268 CNS): 30.2 µM
- TGI (SF-295 CNS): 30 µM
- TGI (SF-539 CNS): 42.8 µM
- TGI (SK-MEL-28 melanoma): 40.6 µM
- TGI (SK-MEL-5 melanoma): > 9.17 µM
- TGI (SN12C renal): 86.6 µM
- TGI (SN12K1 renal): 38.6 µM
- TGI (SNB-19 CNS): 46.8 µM
- TGI (SNB-75 CNS): 24.7 µM
- TGI (SNB-78 CNS): 43.5 µM
- TGI (SW-620 colon): > 91.7 µM
- TGI (U251 CNS): 54.4 µM
- TGI (UACC-257 melanoma): 30.3 µM
- TGI (UACC-62 melanoma): 33.1 µM
- TGI (UO-31 renal): 49.1 µM
- TGI (XF 498 CNS): 40.1 µM
